Data: patent US12257264B2, “Combination therapy for HIV with adenosine derivative and capsid inhibitors” (Brii Biosciences, Inc., priority 2021, dated 2025)
“And” between values parts separate entries of the source, which are not always exact repeats. Equal values may be shown once.

How the values were obtained:
[1] = Plasma exposures following IV infusion alone or in combination to Sprague-Dawley rats
Method: The pharmacokinetics of EFdA and prodrug formula 4-A, as well as lenacapavir were studied in rats after IV infusion administration alone or in combination at a dose of 1.0 mg/kg each.
Formulations: The prodrugs and lenacapavir were formulated alone or in combination as solutions at 1.0 mg/mL each in 20% […], 10% Solutol aqueous solution within 0.5 hour prior to dose.
Dose Administration and Sample Collection: The in-life phase of this study was conducted at the WuXi Apptec (WuXi) at Shanghai, China in accordance with the WuXi Institutional Animal Care and Use Committee (IACUC) standard animal procedures along with the IACUC guidelines that are in compliance with the Animal Welfare Act, the Guide for the Care and Use of Laboratory Animals. and was approved by the IACUA Committee. Male Sprague-Dawley rats (0.262+/−0.019 kg) were used for the studies. Each drug was administered as a single dose by 30-min IV infusion (1 ml/kg) alone or in combination. Plasma samples were collected at 0 (pre-dose), 5, 10, 15 and 30 min, 1, 2, 4, 7, 12 and 24 h post-dose. Blood (approximately 0.1 mL) was processed immediately for plasma by centrifugation at 3,200 g at 4° C. for 10 min within half an hour of collection. Plasma samples were frozen and maintained at −70° C. until analyzed. To stabilize the prodrug at the sample collection and subsequent analysis, the following stabilizing reagents were added to the blood collection K2EDTA tubes on wet ice prior to sample collection: for each 100 mL of blood, 10 mL of premade inhibitor cocktail consists of 600 mM Citric Acid, 400 mM PMSF, 400 mM NaF, and 400 mM Dichlorvos.
Determination of EFdA and Prodrugs in plasma: Briefly, plasma (20 μL) was mixed with 100 l acetonitrile to precipitate protein. Consistent with sample collection procedure, the same cocktail protocol was also added to stabilize the prodrug in the standard and QC samples.
Bioanalysis: A Sciex API-6500 Plus triplequadrupole mass spectrometer coupled with a Waters Acquity UPLC system (Framingham, MA 01701) was used for quantitative analysis of plasma samples. The column was a Waters HSS T3 column (2.1×50 mm, 1.8 micrometer). The mobile phases used were: A, 0.1% formic acid in water; B, 0.1% formic acid in acetonitrile. For the analysis of EFdA and prodrugs in plasma, the flow rate was 0.6 mL/min with a total run time of 2.0 min. […] Detection of the prodrug and EFdA were achieved using positive ion electrospray mass spectroscopic mode using unit resolution mode. Multiple reaction monitoring (MRM) modes were used to quantify both prodrug and EFdA, e.g. the MRM transition for EFdA was 294.0-154.2 Da, and the transition for prodrug 4-A was 449.3-164.9 Da. For the analysis of lenacapavir in plasma, the flow rate was 0.7 mL/min with a total run time of 1.5 min. The HPLC gradient was initiated at 95% A/5% B for 0.50 min, followed by linear gradient increase to […] over the next 0.2 min; the gradient was subsequently maintained at 100% of mobile B over the next 0.7 min before ramping down to 95% mobile phase A within the following 0.1 min. Detection of lenacapavir was achieved using positive ion electrospray mass spectroscopic mode using unit resolution mode. Multiple reaction monitoring (MRM) modes were used to quantify lenacapavir, e.g. the MRM transition for lenacapavir was 968.1-869.4 Da. Peak areas were integrated by the Sciex program Analyst®, version 1.6.3, operating on a Windows 7 computer where concentrations were determined by a weighted (1/x2) linear regression of peak area ratios (peak area of EFdA/peak area of corresponding IS) versus the nominal concentrations of the plasma calibration standards. Calculations were performed on unrounded numbers. Overall, Analyst® determined the precision and accuracy for the calibration standards and QC samples.

[2] = Plasma exposures following oral administration to beagle dogs; settings: for Prodrug formula 4-A Concentrations in Dog Plasma / EFdA Concentrations in Dog Plasma / concentration at 0.25 h / concentration at 0.5 h / concentration at 1 h: Prodrug formula 4-A PO 8.25 mg/kg; for concentration at 0.25 h / concentration at 0.5 h / concentration at 1 h: male, beagle, dog, in vivo, po, Prodrug formula 4-A Concentrations in Dog Plasma
[3] = Prodrug formula 4-A IV infusion 1.0 mg/kg alone, 4.00 hrs, individual animals
[4] = Prodrug formula 4-A IV infusion 1.0 mg/kg alone, 7.00 hrs, individual animals
[5] = Prodrug formula 4-A IV infusion 1.0 mg/kg alone, 12.0 hrs, individual animals
[6] = Prodrug formula 4-A IV infusion 1.0 mg/kg alone, 24.0 hrs, individual animals
[7] = Prodrug formula 4-A IV infusion 1.0 mg/kg with Lenacapavir, 7.00 hrs, individual animals
[8] = Prodrug formula 4-A IV infusion 1.0 mg/kg with Lenacapavir, 12.0 hrs, individual animals
[9] = Prodrug formula 4-A IV infusion 1.0 mg/kg with Lenacapavir, 24.0 hrs, individual animals
[10] = Prodrug formula 4-A IV infusion 1.0 mg/kg with Lenacapavir, 48.0 hrs, individual animals
[11] = Prodrug formula 4-A IV infusion 1.0 mg/kg with Lenacapavir, 72.0 hrs, individual animals

SMILES: C#C[C@]1(COC(=O)OCc2oc(=O)oc2C)O[C@@H](n2cnc3c(N)nc(F)nc32)C[C@@H]1O [Formula 4-A, ((2R,3S,5R)-5-(6-amino-2-fluoro-9H-purin-9-yl)-2-ethynyl-3-hydroxytetrahydrofuran-2-yl)methyl ((5-methyl-2-oxo-1,3-dioxol-4-yl)methyl) carbonate]
- Prodrug formula 4A Concentrations in Rat Plasma When Dosed alone ([1]; Prodrug formula 4-A IV infusion 1.0 mg/kg alone, 0.0830 hrs, individual animals): BQL
- Prodrug formula 4A Concentrations in Rat Plasma When Dosed alone ([1]; Prodrug formula 4-A IV infusion 1.0 mg/kg alone, 0.167 hrs, individual animals): BQL
- Prodrug formula 4A Concentrations in Rat Plasma When Dosed alone ([1]; Prodrug formula 4-A IV infusion 1.0 mg/kg alone, 0.250 hrs, individual animals): BQL
- Prodrug formula 4A Concentrations in Rat Plasma When Dosed alone ([1]; Prodrug formula 4-A IV infusion 1.0 mg/kg alone, 0.500 hrs, individual animals): BQL
- Prodrug formula 4A Concentrations in Rat Plasma When Dosed alone ([1]; Prodrug formula 4-A IV infusion 1.0 mg/kg alone, 1.00 hrs, individual animals): BQL
- Prodrug formula 4A Concentrations in Rat Plasma When Dosed alone ([1]; Prodrug formula 4-A IV infusion 1.0 mg/kg alone, 2.00 hrs, individual animals): BQL
- EFdA Concentrations in Rat Plasma When Dosed Alone [1, 3]: BQL
- Prodrug formula 4A Concentrations in Rat Plasma When Dosed alone [1, 3]: BQL
- EFdA Concentrations in Rat Plasma When Dosed Alone [1, 4]: BQL
- Prodrug formula 4A Concentrations in Rat Plasma When Dosed alone [1, 4]: BQL
- EFdA Concentrations in Rat Plasma When Dosed Alone [1, 5]: BQL
- Prodrug formula 4A Concentrations in Rat Plasma When Dosed alone [1, 5]: BQL
- EFdA Concentrations in Rat Plasma When Dosed Alone [1, 6]: BQL
- Prodrug formula 4A Concentrations in Rat Plasma When Dosed alone [1, 6]: BQL
- Prodrug formula 4A Concentrations in Rat Plasma When Dosed with Lenacapavir ([1]; Prodrug formula 4-A IV infusion 1.0 mg/kg with Lenacapavir, 0.0830 hrs, individual animals): 1.37 ng/mL and 5.19 ng/mL and 1.54 ng/mL and 2.80 ng/mL
- Prodrug formula 4A Concentrations in Rat Plasma When Dosed with Lenacapavir ([1]; Prodrug formula 4-A IV infusion 1.0 mg/kg with Lenacapavir, 0.167 hrs, individual animals): BQL
- Prodrug formula 4A Concentrations in Rat Plasma When Dosed with Lenacapavir ([1]; Prodrug formula 4-A IV infusion 1.0 mg/kg with Lenacapavir, 0.250 hrs, individual animals): 1.13 ng/mL and BQL (2×) and 2.38 ng/mL
- Prodrug formula 4A Concentrations in Rat Plasma When Dosed with Lenacapavir ([1]; Prodrug formula 4-A IV infusion 1.0 mg/kg with Lenacapavir, 0.500 hrs, individual animals): BQL
- Prodrug formula 4A Concentrations in Rat Plasma When Dosed with Lenacapavir ([1]; Prodrug formula 4-A IV infusion 1.0 mg/kg with Lenacapavir, 1.00 hrs, individual animals): BQL
- Prodrug formula 4A Concentrations in Rat Plasma When Dosed with Lenacapavir ([1]; Prodrug formula 4-A IV infusion 1.0 mg/kg with Lenacapavir, 2.00 hrs, individual animals): BQL
- Prodrug formula 4A Concentrations in Rat Plasma When Dosed with Lenacapavir ([1]; Prodrug formula 4-A IV infusion 1.0 mg/kg with Lenacapavir, 4.00 hrs, individual animals): BQL
- EFdA Concentrations in Rat Plasma When Dosed with Lenacapavir [1, 7]: BQL
- Prodrug formula 4A Concentrations in Rat Plasma When Dosed with Lenacapavir [1, 7]: BQL
- EFdA Concentrations in Rat Plasma When Dosed with Lenacapavir [1, 8]: BQL
- Prodrug formula 4A Concentrations in Rat Plasma When Dosed with Lenacapavir [1, 8]: BQL
- EFdA Concentrations in Rat Plasma When Dosed with Lenacapavir [1, 9]: BQL
- Prodrug formula 4A Concentrations in Rat Plasma When Dosed with Lenacapavir [1, 9]: BQL
- EFdA Concentrations in Rat Plasma When Dosed with Lenacapavir [1, 10]: BQL
- Prodrug formula 4A Concentrations in Rat Plasma When Dosed with Lenacapavir [1, 10]: BQL
- EFdA Concentrations in Rat Plasma When Dosed with Lenacapavir [1, 11]: BQL
- Prodrug formula 4A Concentrations in Rat Plasma When Dosed with Lenacapavir [1, 11]: BQL
- concentration at 0.25 h ([1]; male, Sprague-Dawley, rat, in vivo, 1 mg/kg, Prodrug formula 4A Concentrations in Rat Plasma When Dosed alone, Prodrug formula 4-A IV infusion 1.0 mg/kg alone, 0.250 hrs, individual animals): 2.27 ng/mL
- concentration at 0.083 h ([1]; male, Sprague-Dawley, rat, in vivo, Prodrug formula 4A Concentrations in Rat Plasma When Dosed with Lenacapavir, Prodrug formula 4-A IV infusion 1.0 mg/kg with Lenacapavir, 0.0830 hrs, Mean): 2.73 ng/mL
- concentration at 0.25 h ([1]; male, Sprague-Dawley, rat, in vivo, Prodrug formula 4A Concentrations in Rat Plasma When Dosed with Lenacapavir, Prodrug formula 4-A IV infusion 1.0 mg/kg with Lenacapavir, 0.250 hrs, Mean): 1.76 ng/mL
- Prodrug detected in the systemic circulation ([1]; rats, in the absence and presences of lenacapavir): minimal prodrug detected in the systemic circulation
- Prodrug formula 4-A Concentrations in Dog Plasma ([2]; 0.250 hrs, individual animals, 8.25 mg/kg): 1.63 ng/mL and 1.09 ng/mL
- Prodrug formula 4-A Concentrations in Dog Plasma ([2]; 0.500 hrs, individual animals, 8.25 mg/kg): BQL
- Prodrug formula 4-A Concentrations in Dog Plasma ([2]; 1.00 hrs, individual animals, 8.25 mg/kg): BQL
- Prodrug formula 4-A Concentrations in Dog Plasma ([2]; 2.00 hrs, individual animals): BQL
- Prodrug formula 4-A Concentrations in Dog Plasma ([2]; 4.00 hrs, individual animals): BQL
- Prodrug formula 4-A Concentrations in Dog Plasma ([2]; 6.00 hrs, individual animals): BQL
- Prodrug formula 4-A Concentrations in Dog Plasma ([2]; 8.00 hrs, individual animals): BQL
- EFdA Concentrations in Dog Plasma ([2]; 12.0 hrs, individual animals): BQL
- Prodrug formula 4-A Concentrations in Dog Plasma ([2]; 12.0 hrs, individual animals): BQL
- EFdA Concentrations in Dog Plasma ([2]; 24.0 hrs, individual animals): BQL
- Prodrug formula 4-A Concentrations in Dog Plasma ([2]; 24.0 hrs, individual animals): BQL
- EFdA AUC and Cmax compared with a dose-equivalent EFdA ([2]; dogs, oral): higher AUC and Cmax
- Prodrug detected in the systemic circulation ([2]; dogs, oral): minimal prodrug detected in the systemic circulation
- concentration at 0.25 h ([2]; 8.25 mg/kg, 0.250 hrs, Mean): 1.28 ng/mL
- concentration at 0.25 h ([2]; 8.25 mg/kg, 0.250 hrs, individual animals): 1.13 ng/mL
- concentration at 0.5 h ([2]; 8.25 mg/kg, 0.500 hrs, Mean): 1.68 ng/mL
- concentration at 0.5 h ([2]; 8.25 mg/kg, 0.500 hrs, individual animals): 1.68 ng/mL
- concentration at 1 h ([2]; 8.25 mg/kg, 1.00 hrs, Mean): 1.43 ng/mL
- concentration at 1 h ([2]; 8.25 mg/kg, 1.00 hrs, individual animals): 1.43 ng/mL
